Data as given in US10487068B2, “Pyridazine derivatives as RORc modulators” (Genentech, Inc., priority 2015, dated 2019).
pIC50: −log10 of the molar value.

What follows are molecules tested against T1, RORc ligand binding domain (Homo sapiens, UniProt P51449) (assay: In Vitro RORc Ligand Binding Assay). Details: RORc IC50, radioligand 25-[3H]hydroxycholesterol 6 nM; 0.6 ug/mL RORc receptor; 3 h at 25° C.
T1 sequence (P51449 269-508 limits assumed): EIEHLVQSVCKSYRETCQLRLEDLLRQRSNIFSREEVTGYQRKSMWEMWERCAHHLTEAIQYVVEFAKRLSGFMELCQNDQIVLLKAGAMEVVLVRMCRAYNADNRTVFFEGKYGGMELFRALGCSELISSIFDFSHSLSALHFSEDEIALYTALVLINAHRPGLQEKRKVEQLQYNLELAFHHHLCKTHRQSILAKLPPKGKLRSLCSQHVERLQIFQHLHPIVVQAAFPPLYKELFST

`C[C@H](CO)NC(=O)c1cncc([C@@]23CC[C@@H](c4cc(-c5c(F)cccc5F)nnc42)C3(C)C)n1` [Example 51, 6-((5R,8S)-3-(2,6-difluorophenyl)-9,9-dimethyl-5,6,7,8-tetrahydro-5,8-methanocinnolin-8-yl)-N-((R)-1-hydroxypropan-2-yl)pyrazine-2-carboxamide] and `C[C@@H](CO)NC(=O)c1cncc([C@@]23CC[C@@H](c4cc(-c5c(F)cccc5F)nnc42)C3(C)C)n1` [Example 52, 6-((5R,8S)-3-(2,6-difluorophenyl)-9,9-dimethyl-5,6,7,8-tetrahydro-5,8-methanocinnolin-8-yl)-N-((S)-1-hydroxypropan-2-yl)pyrazine-2-carboxamide] are within 0.2 log units of each other in pIC50: 7.23 for the first, 7.42 for the second.

Compared with `CC1(C)[C@H]2CC[C@]1(c1ccnc(-n3ccc(CO)n3)n1)c1nnc(-c3c(F)cccc3F)cc12` [Example 252], `C[C@H](O)c1ccn(-c2nccc([C@@]34CC[C@@H](c5cc(-c6c(F)cccc6F)nnc53)C4(C)C)n2)n1` [Example 353] is 0.26 log units higher in pIC50: 7.71 for the first, 7.97 for the second. The second is the more potent here.

`CC(C)(O)CNC(=O)c1cncc([C@@]23CC[C@@H](c4cc(-c5c(F)cccc5F)nnc42)C3(C)C)n1` [Example 86, 6-((5R,8S)-3-(2,6-difluorophenyl)-9,9-dimethyl-5,6,7,8-tetrahydro-5,8-methanocinnolin-8-yl)-N-(2-hydroxy-2-methylpropyl)pyrazine-2-carboxamide] and `C[C@H](O)CNC(=O)c1cncc([C@@]23CC[C@@H](c4cc(-c5c(F)cccc5F)nnc42)C3(C)C)n1` [Example 50, 6-((5R,8S)-3-(2,6-difluorophenyl)-9,9-dimethyl-5,6,7,8-tetrahydro-5,8-methanocinnolin-8-yl)-N-((S)-2-hydroxypropyl)pyrazine-2-carboxamide] are within 0.2 log units of each other in pIC50: 7.35 for the first, 7.50 for the second.

First: CC1(C)[C@H]2CC[C@]1(c1nc(N)ncc1F)c1nnc(-c3c(F)cccc3F)cc12 [Example 268]
Second: CC1(C)[C@H]2CC[C@]1(c1ccnc(C(N)=O)n1)c1nnc(-c3c(F)cccc3F)cc12 [Example 113]
The pIC50 of the first is 0.92 log units higher: 8.48 for the first, 7.56 for the second. The first is the more potent here.

Compared with `CC1(C)[C@H]2CC[C@]1(c1cncc(Oc3cnccn3)n1)c1nnc(-c3c(F)cccc3F)cc12` [Example 422], `CC(C)(O)c1ccc(-c2cncc([C@@]34CC[C@@H](c5cc(-c6c(F)cccc6F)nnc53)C4(C)C)n2)cn1` [Example 392, 2-(5-(6-((5R,8S)-3-(2,6-difluorophenyl)-9,9-dimethyl-5,6,7,8-tetrahydro-5,8-methanocinnolin-8-yl)pyrazin-2-yl)pyridin-2-yl)propan-2-ol] is 0.46 log units higher in pIC50: 7.80 for the first, 8.26 for the second. The second is the more potent here.

`CC1(C)[C@H]2CC[C@]1(c1ccnc(-c3ccc(NS(C)(=O)=O)nc3)n1)c1nnc(-c3c(F)cccc3F)cc12` [Example 414, N-(5-(4-((5R,8S)-3-(2,6-difluorophenyl)-9,9-dimthyl-5,6,7,8-tetrahydro-5,8-methanocinnolin-8-yl)pyrimidin-2-yl)pyridin-2-yl)methanesulfonamide] and `C[C@@H](O)C(=O)Nc1ccc(-c2nccc([C@@]34CC[C@@H](c5cc(-c6c(F)cccc6F)nnc53)C4(C)C)n2)cn1` [Example 418] are within 0.2 log units of each other in pIC50: 8.01 for the first, 7.98 for the second.

Going from `COCCNC(=O)c1cccc([C@@]23CC[C@@H](c4cc(-c5c(F)cccc5F)nnc42)C3(C)C)n1` [Example 39, 6-((5R,8S)-3-(2,6-difluorophenyl)-9,9-dimethyl-5,6,7,8-tetrahydro-5,8-methanocinnolin-8-yl)-N-(2-methoxyethyl)picolinamide] to `CC1(C)[C@H]2CC[C@]1(c1cccc(C(=O)NCCO)n1)c1nnc(-c3c(F)cccc3F)cc12` [Example 56, 6-((5R,8S)-3-(2,6-difluorophenyl)-9,9-dimethyl-5,6,7,8-tetrahydro-5,8-methanocinnolin-8-yl)-N-(2-hydroxyethyl)picolinamide], the pIC50 falls from 7.94 to 7.45 (0.49 log units).

First: CC1(C)[C@H]2CC[C@]1(c1ccnc(-c3ccnc(CO)c3)n1)c1nnc(-c3c(F)cccc3F)cc12 [Example 412]
Second: CC1(C)[C@H]2CC[C@]1(c1ccnc(-c3ccc(C(N)=O)nc3)n1)c1nnc(-c3c(F)cccc3F)cc12 [Example 373]
The pIC50 of the first is 0.25 log units lower: 8.15 for the first, 8.40 for the second.

`CC1(C)[C@H]2CC[C@]1(c1ccnc(-n3cnc(CO)n3)n1)c1nnc(-c3c(F)cccc3F)cc12` [Example 368] and `CC(C)c1ncn(-c2nccc([C@@]34CC[C@@H](c5cc(-c6c(F)cccc6F)nnc53)C4(C)C)n2)n1` [Example 273] are within 0.2 log units of each other in pIC50: 8.27 for the first, 8.28 for the second.

`CC1(C)[C@H]2CC[C@]1(c1cncc(-n3cc[nH]c3=O)n1)c1nnc(-c3c(F)cccc3F)cc12` [Example 202, 1-(6-((5R,8S)-3-(2,6-difluorophenyl)-9,9-dimethyl-5,6,7,8-tetrahydro-5,8-methanocinnolin-8-yl)pyrazin-2-yl)-1H-imidazol-2(3H)-one] and `CC1(C)[C@H]2CC[C@]1(c1ccnc(-n3ccc(=O)[nH]3)n1)c1nnc(-c3c(F)cccc3F)cc12` [Example 303] are within 0.2 log units of each other in pIC50: 7.97 for the first, 7.82 for the second.

First: CC1(C)[C@H]2CC[C@]1(c1cncc(C(=O)NCc3nnc[nH]3)n1)c1nnc(-c3c(F)cccc3F)cc12 [Example 139, N-((4H-1,2,4-triazol-3-yl)methyl)-6-((5R,8S)-3-(2,6-difluorophenyl)-9,9-dimethyl-5,6,7,8-tetrahydro-5,8-methanocinnolin-8-yl)pyrazine-2-carboxamide]
Second: CC1(C)[C@@H]2CC[C@@]1(c1cncc(C(=O)NC3COC3)n1)c1nnc(-c3c(F)cccc3F)cc12 [Example 82, 6-((5S,8R)-3-(2,6-difluorophenyl)-9,9-dimethyl-5,6,7,8-tetrahydro-5,8-methanocinnolin-8-yl)-N-(oxetan-3-yl)pyrazine-2-carboxamide]
The pIC50 of the first is 0.29 log units higher: 7.18 for the first, 6.89 for the second. The first is the more potent here.

First: CC(C)(O)c1nc(-c2cncc([C@@]34CC[C@@H](c5cc(-c6c(F)cccc6F)nnc53)C4(C)C)n2)c[nH]1 [Example 301, 2-(4-(6-((5R,8S)-3-(2,6-difluorophenyl)-9,9-dimethyl-5,6,7,8-tetrahydro-5,8-methanocinnolin-8-yl)pyrazin-2-yl)-1H-imidazol-2-yl)propan-2-ol]
Second: CC(C)(O)c1noc(-c2cncc([C@@]34CC[C@@H](c5cc(-c6c(F)cccc6F)nnc53)C4(C)C)n2)n1 [Example 248, 2-(5-(6-((5R,8S)-3-(2,6-difluorophenyl)-9,9-dimethyl-5,6,7,8-tetrahydro-5,8-methanocinnolin-8-yl)pyrazin-2-yl)-1,2,4-oxadiazol-3-yl)propan-2-ol]
The pIC50 of the first is 0.30 log units higher: 7.87 for the first, 7.57 for the second. The first is the more potent here.

First: CC1(C)[C@H]2CC[C@]1(c1cncc(-c3nc(C[C@H](O)CO)n[nH]3)n1)c1nnc(-c3c(F)cccc3F)cc12 [Example 293, (S)-3-(5-(6-((5R,8S)-3-(2,6-difluorophenyl)-9,9-dimethyl-5,6,7,8-tetrahydro-5,8-methanocinnolin-8-yl)pyrazin-2-yl)-1H-1,2,4-triazol-3-yl)propane-1,2-diol]
Second: C[C@H](O)c1coc(-c2cncc([C@@]34CC[C@@H](c5cc(-c6c(F)cccc6F)nnc53)C4(C)C)n2)n1 [Example 378, (S)-1-(2-(6-((5R,8S)-3-(2,6-difluorophenyl)-9,9-dimethyl-5,6,7,8-tetrahydro-5,8-methanocinnolin-8-yl)pyrazin-2-yl)oxazol-4-yl)ethanol]
The pIC50 of the first is 0.62 log units lower: 7.55 for the first, 8.17 for the second. The second is the more potent here.

`CC1(C)[C@H]2CC[C@]1(c1cccc(C(N)=O)n1)c1nnc(-c3c(F)cccc3F)cc12` [Example 45, 6-((5R,8S)-3-(2,6-difluorophenyl)-9,9-dimethyl-5,6,7,8-tetrahydro-5,8-methanocinnolin-8-yl)picolinamide] and `CC1(C)[C@H]2CC[C@]1(c1cccc(C#N)n1)c1nnc(-c3c(F)cccc3F)cc12` [Example 16, 6-((5R,8S)-3-(2,6-difluorophenyl)-9,9-dimethyl-5,6,7,8-tetrahydro-5,8-methanocinnolin-8-yl)picolinonitrile] are within 0.2 log units of each other in pIC50: 8.06 for the first, 8.12 for the second.

Compared with `CC(C)(O)c1ncc(-c2nccc([C@@]34CC[C@@H](c5cc(-c6c(F)cccc6F)nnc53)C4(C)C)n2)cn1` [Example 388], `CC(C)(O)c1ccn(-c2nccc([C@@]34CC[C@@H](c5cc(-c6c(F)cccc6F)nnc53)C4(C)C)n2)n1` [Example 290] is 0.67 log units lower in pIC50: 8.14 for the first, 7.47 for the second.

Going from `CC1(C)[C@H]2CC[C@]1(c1cccc(-c3nc([C@H](O)C(F)(F)F)n[nH]3)n1)c1nnc(-c3c(F)cccc3F)cc12` [Example 340, (S)-1-(5-(6-((5R,8S)-3-(2,6-difluorophenyl)-9,9-dimethyl-5,6,7,8-tetrahydro-5,8-methanocinnolin-8-yl)pyridin-2-yl)-1H-1,2,4-triazol-3-yl)-2,2,2-trifluoroethanol] to `CC1(C)[C@H]2CC[C@]1(c1cccc(C(=O)NCCS(C)(=O)=O)n1)c1nnc(-c3c(F)cccc3F)cc12` [Example 83, 6-((5R,8S)-3-(2,6-difluorophenyl)-9,9-dimethyl-5,6,7,8-tetrahydro-5,8-methanocinnolin-8-yl)-N-(2-(methylsulfonyl)ethyl)picolinamide], the pIC50 falls from 8.44 to 7.88 (0.56 log units). The first is the more potent here.

Compared with `CC1(C)[C@H]2CC[C@]1(c1cncc(C(=O)N[C@@H]3COC(=O)C3)n1)c1nnc(-c3c(F)cccc3F)cc12` [Example 376, 6-((5R,8S)-3-(2,6-difluorophenyl)-9,9-dimethyl-5,6,7,8-tetrahydro-5,8-methanocinnolin-8-yl)-N-((S)-5-oxotetrahydrofuran-3-yl)pyrazine-2-carboxamide], `CC1(C)[C@H]2CC[C@]1(c1cc(C(=O)NC3COC3)ccn1)c1nnc(-c3c(F)cccc3F)cc12` [Example 65] is 0.59 log units lower in pIC50: 7.57 for the first, 6.98 for the second.

First: CC[C@@](C)(O)c1coc(-c2cncc([C@@]34CC[C@@H](c5cc(-c6c(F)cccc6F)nnc53)C4(C)C)n2)n1 [Example 430, (R)-2-(2-(6-((5R,8S)-3-(2,6-difluorophenyl)-9,9-dimethyl-5,6,7,8-tetrahydro-5,8-methanocinnolin-8-yl)pyrazin-2-yl)oxazol-4-yl)butan-2-ol]
Second: C[C@@H](O)CNC(=O)c1nccc([C@@]23CC[C@@H](c4cc(-c5c(F)cccc5F)nnc42)C3(C)C)n1 [Example 115]
The pIC50 of the first is 0.62 log units higher: 7.82 for the first, 7.20 for the second. The first is the more potent here.
